Assay results from PubChem BioAssay AID256 (DTP/NCI, 2004).
Values joined by “and” are separate entries in the source; they are usually repeats but may differ in a detail not shown here. Identical values can stand only once. Inconclusive results and toxic doses are left out.

System: CD2F1 mice, L1210 leukemia ip, survival T/C
Experiment: NCI In Vivo Anticancer Drug Screen. Data for tumor model L1210 Leukemia (intraperitoneal) in CD2F1 (CDF1) mice
Conditions: higher = longer survival
In short: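 Ratio T/C, where T is the treated-group value and C the vehicle-dosed control value, from mice implanted with a transplantable tumor.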

[1] = endpoint: mean survival time, dose: 100.0 mg/kg/injection, schedule: Q04DX003 (ip), vehicle: Klucel (hydroxypropylcellulose) (HPC)
[2] = endpoint: mean survival time, dose: 200.0 mg/kg/injection, schedule: Q04DX003 (ip), vehicle: Klucel (hydroxypropylcellulose) (HPC)
[3] = endpoint: mean survival time, dose: 400.0 mg/kg/injection, schedule: Q04DX003 (ip), vehicle: Klucel (hydroxypropylcellulose) (HPC)
[4] = endpoint: mean survival time, dose: 100.0 mg/kg/injection, schedule: Q01DX009 (ip), vehicle: saline with Tween-80
[5] = endpoint: mean survival time, dose: 100.0 mg/kg/injection, schedule: Q04DX003 (ip), vehicle: saline with Tween-80
[6] = endpoint: mean survival time, dose: 200.0 mg/kg/injection, schedule: Q04DX003 (ip), vehicle: saline with Tween-80
[7] = endpoint: mean survival time, dose: 100.0 mg/kg/injection, schedule: Q01DX001 (ip), vehicle: saline with Tween-80
[8] = endpoint: mean survival time, dose: 200.0 mg/kg/injection, schedule: Q01DX001 (ip), vehicle: saline with Tween-80
[9] = endpoint: mean survival time, dose: 400.0 mg/kg/injection, schedule: Q01DX001 (ip), vehicle: saline with Tween-80
[10] = endpoint: mean survival time, dose: 200.0 mg/kg/injection, schedule: Q01DX009 (ip), vehicle: saline with Tween-80
[11] = endpoint: mean survival time, dose: 400.0 mg/kg/injection, schedule: Q01DX009 (ip), vehicle: saline with Tween-80
[12] = endpoint: mean survival time, dose: 400.0 mg/kg/injection, schedule: Q04DX003 (ip), vehicle: saline with Tween-80
[13] = endpoint: mean survival time, dose: 100.0 mg/kg/injection, schedule: Q01DX001 (ip), vehicle: Klucel (hydroxypropylcellulose) (HPC)
[14] = endpoint: mean survival time, dose: 200.0 mg/kg/injection, schedule: Q01DX001 (ip), vehicle: Klucel (hydroxypropylcellulose) (HPC)
[15] = endpoint: mean survival time, dose: 400.0 mg/kg/injection, schedule: Q01DX001 (ip), vehicle: Klucel (hydroxypropylcellulose) (HPC)

## C[C@]12CC[C@H](OC3OC(CO)C(O)C(O)C3O)C[C@H]1CC[C@@H]1[C@@H]2CC[C@]2(C)[C@@H](C3=CCOC3=O)CC[C@]12O (stereo partly drawn)
endpoint: mean survival time, dose: 0.5 mg/kg/injection, schedule: Q01DX009 (ip), vehicle: saline
  T/C: 110 % of control
endpoint: mean survival time, dose: 1.0 mg/kg/injection, schedule: Q01DX009 (ip), vehicle: saline
  T/C: 110 % of control
endpoint: mean survival time, dose: 2.0 mg/kg/injection, schedule: Q01DX009 (ip), vehicle: saline
  T/C: 107 % of control
endpoint: median survival time, dose: 0.5 mg/kg/injection, schedule: Q01DX009 (ip), vehicle: saline
  T/C: 112 % of control
endpoint: median survival time, dose: 1.0 mg/kg/injection, schedule: Q01DX009 (ip), vehicle: saline
  T/C: 108 % of control
endpoint: median survival time, dose: 2.0 mg/kg/injection, schedule: Q01DX009 (ip), vehicle: saline
  T/C: 113 % of control
endpoint: median survival time, dose: 4.0 mg/kg/injection, schedule: Q01DX009 (ip), vehicle: saline
  T/C: 91 % of control

## CC1COC(C(=O)O)(c2ccccc2)O1 (stereo not drawn)
endpoint: mean survival time, dose: 100.0 mg/kg/injection, schedule: Q04DX002 (ip), vehicle: saline
  T/C: 96 % of control
endpoint: mean survival time, dose: 200.0 mg/kg/injection, schedule: Q04DX002 (ip), vehicle: saline
  T/C: 108 % of control
endpoint: mean survival time, dose: 400.0 mg/kg/injection, schedule: Q04DX002 (ip), vehicle: saline
  T/C: 100 % of control

## CCOC(=O)c1[nH]c(C)c(C(=O)OCC)c1C
[1]
  T/C: 103 % of control
[2]
  T/C: 103 % of control
[3]
  T/C: 95 % of control

## CC(=O)N/N=C1\CC2CCC1(C)C2(C)C (stereo not drawn)
endpoint: mean survival time, dose: 100.0 mg/kg/injection, schedule: Q01DX001 (ip), vehicle: saline
  T/C: 102 % of control
endpoint: mean survival time, dose: 200.0 mg/kg/injection, schedule: Q01DX001 (ip), vehicle: saline
  T/C: 102 % of control
endpoint: mean survival time, dose: 400.0 mg/kg/injection, schedule: Q01DX001 (ip), vehicle: saline
  T/C: 98 % of control

## CCOC(=O)C1CC(O)CN1 (stereo not drawn)
endpoint: mean survival time, dose: 100.0 mg/kg/injection, schedule: Q01DX009 (ip), vehicle: saline sonified
  T/C: 98 % of control
endpoint: mean survival time, dose: 200.0 mg/kg/injection, schedule: Q01DX009 (ip), vehicle: saline sonified
  T/C: 95 % of control
endpoint: mean survival time, dose: 400.0 mg/kg/injection, schedule: Q01DX009 (ip), vehicle: saline sonified
  T/C: 92 % of control

## CCOC(=O)c1cnc(=O)[nH]c1N
endpoint: mean survival time, dose: 25.0 mg/kg/injection, schedule: Q01DX009 (ip), vehicle: saline with Tween-80
  T/C: 101 % of control
endpoint: mean survival time, dose: 25.0 mg/kg/injection, schedule: Q04DX003 (ip), vehicle: saline with Tween-80
  T/C: 104 % of control
endpoint: mean survival time, dose: 50.0 mg/kg/injection, schedule: Q01DX009 (ip), vehicle: saline with Tween-80
  T/C: 104 % of control
endpoint: mean survival time, dose: 50.0 mg/kg/injection, schedule: Q04DX003 (ip), vehicle: saline with Tween-80
  T/C: 98 % of control
[4]
  T/C: 96 % of control
[5]
  T/C: 89 % of control and 100 % of control
[6]
  T/C: 98 % of control

## CC(C)(C)C1=Nc2ccccc2[Si]1(C)C
[7]
  T/C: 98 % of control
[8]
  T/C: 102 % of control
[9]
  T/C: 95 % of control

## CN(CCN1CCCCC1)C(=O)C(O)(c1ccccc1)c1ccccc1
endpoint: mean survival time, dose: 75.0 mg/kg/injection, schedule: Q01DX001 (ip), vehicle: saline
  T/C: 104 % of control
endpoint: mean survival time, dose: 150.0 mg/kg/injection, schedule: Q01DX001 (ip), vehicle: saline
  T/C: 98 % of control

## COC(=O)/C1=C/CCCCCC(=O)C1C(=O)OC (stereo not drawn)
[4]
  T/C: 96 % of control
[5]
  T/C: 96 % of control
[10]
  T/C: 96 % of control
[6]
  T/C: 100 % of control
[11]
  T/C: 93 % of control
[12]
  T/C: 96 % of control

## CC(=O)c1ccc(Br)c([N+](=O)[O-])c1
endpoint: mean survival time, dose: 100.0 mg/kg/injection, schedule: Q01DX009 (ip), vehicle: Klucel (hydroxypropylcellulose) (HPC)
  T/C: 102 % of control
[1]
  T/C: 96 % of control
endpoint: mean survival time, dose: 200.0 mg/kg/injection, schedule: Q01DX009 (ip), vehicle: Klucel (hydroxypropylcellulose) (HPC)
  T/C: 98 % of control
[2]
  T/C: 100 % of control
endpoint: mean survival time, dose: 400.0 mg/kg/injection, schedule: Q01DX009 (ip), vehicle: Klucel (hydroxypropylcellulose) (HPC)
  T/C: 102 % of control
[3]
  T/C: 105 % of control

## ON=C(Cc1ccccc1)Cc1ccccc1
[4]
  T/C: 103 % of control
[5]
  T/C: 102 % of control
[10]
  T/C: 94 % of control
[6]
  T/C: 100 % of control
[11]
  T/C: 95 % of control
[12]
  T/C: 105 % of control

## CC1OC(n2cc(Br)c(=O)[nH]c2=O)C(O)C(O)C1O (stereo not drawn)
endpoint: mean survival time, dose: 12.5 mg/kg/injection, schedule: Q01DX005 (ip), vehicle: water
  T/C: 99 % of control
endpoint: mean survival time, dose: 25.0 mg/kg/injection, schedule: Q01DX005 (ip), vehicle: water
  T/C: 101 % of control
endpoint: mean survival time, dose: 50.0 mg/kg/injection, schedule: Q01DX005 (ip), vehicle: water
  T/C: 105 % of control
endpoint: mean survival time, dose: 100.0 mg/kg/injection, schedule: Q01DX005 (ip), vehicle: water
  T/C: 100 % of control
endpoint: mean survival time, dose: 200.0 mg/kg/injection, schedule: Q01DX005 (ip), vehicle: water
  T/C: 99 % of control

## CC(=O)OC1C(CNC(=O)Oc2ccccc2)OC(n2cnc3c(=O)[nH]c(N)nc32)C1OC(C)=O (stereo not drawn)
[13]
  T/C: 88 % of control
[14]
  T/C: 94 % of control
[15]
  T/C: 91 % of control

## Cc1cccc(CCF)c1
[7]
  T/C: 110 % of control
[8]
  T/C: 107 % of control
[9]
  T/C: 98 % of control

## CCOc1ccc2nc3cc(N)ccc3c(N)c2c1
endpoint: mean survival time, dose: 25.0 mg/kg/injection, schedule: Q01DX009 (ip), vehicle: saline
  T/C: 101 % of control
endpoint: mean survival time, dose: 50.0 mg/kg/injection, schedule: Q01DX009 (ip), vehicle: saline
  T/C: 113 % of control
endpoint: mean survival time, dose: 100.0 mg/kg/injection, schedule: Q01DX009 (ip), vehicle: saline
  T/C: 122 % of control and 101 % of control
endpoint: mean survival time, dose: 100.0 mg/kg/injection, schedule: Q04DX003 (ip), vehicle: saline
  T/C: 114 % of control
endpoint: mean survival time, dose: 200.0 mg/kg/injection, schedule: Q04DX003 (ip), vehicle: saline
  T/C: 105 % of control
endpoint: mean survival time, dose: 400.0 mg/kg/injection, schedule: Q04DX003 (ip), vehicle: saline
  T/C: 105 % of control

## Cc1ccc(Nc2c3ccccc3nc3ccccc23)cc1
endpoint: mean survival time, dose: 37.5 mg/kg/injection, schedule: Q04DX003 (ip), vehicle: saline with Tween-80
  T/C: 101 % of control
endpoint: mean survival time, dose: 40.0 mg/kg/injection, schedule: Q04DX003 (ip), vehicle: other
  T/C: 120 % of control
endpoint: mean survival time, dose: 75.0 mg/kg/injection, schedule: Q04DX003 (ip), vehicle: saline with Tween-80
  T/C: 102 % of control
endpoint: mean survival time, dose: 150.0 mg/kg/injection, schedule: Q04DX003 (ip), vehicle: other
  T/C: 160 % of control

## O=c1cc(-c2ccc(S(=O)(=O)F)cc2)[nH]c2ccc([N+](=O)[O-])cc12
[13]
  T/C: 108 % of control
[14]
  T/C: 101 % of control
[15]
  T/C: 112 % of control
